Measured values as given in paper PMC12067128, “Macrocyclization: Enhancing Drug-like Properties of Discoidin Domain Receptor Kinase Inhibitors” (ACS Medicinal Chemistry Letters, 2025).
Values after ≈ are worked out from the molar mass of the structure shown. Like-named read-outs stand apart in the source and are kept apart here.

Experiments:
Kinetic solubility = format: physicochemical; details: for solubility kinetic at 2 h: phosphate buffered saline, PBS pH 7.4, 2% DMSO, 2 h room temperature, assay range 5-200 µM, read-out: KS (kinetic solubility)
Description: Using a stock solution of test compound in 100% DMSO, duplicate dilutions were prepared at a nominal concentration of 200 µM in 0.1 M phosphate buffered saline (PBS) at pH 7.4, with a 2% final DMSO content. Test compound calibration standards were prepared at 200 µM and 10 µM in 100%
DMSO. The PBS and DMSO dilutions were equilibrated on a shaking platform at room temperature for two hours prior to filtration using a Multiscreen HTS solubility filter plate (Millipore). Filtrates were analysed by LC-UV-MS and the concentration of compound in PBS filtrate determined by comparing the UV absorbance peak with that of the two DMSO calibration standards. Mass spectrometry will be used to confirm the presence of the expected molecular ion in the UV peak measured. The effective range of the assay is 5 – 200 µM. […]

[1] = Caco-2 membrane permeability assay; format: in vitro ADME; details: human
Description: Lucifer Yellow (LY) was added to the apical buffer in all wells to assess viability of the cell layer. As LY cannot freely permeate lipophilic barriers, a high degree of LY transport indicates poor integrity of the cell layer and wells with a LY Papp > 10 x 10-6 cm/s were rejected. Compound recovery from the wells was determined from MS responses (normalised to internal standard) in donor and acceptor chambers at the end of incubation compared to response in the donor chamber pre- […]
which may reduce the reliability of a result.
Caco-2 membrane permeability assay
Caco-2 cells (ECACC) were cultured in DMEM, 10% FBS, 1% NEAA, Hepes buffer 10 mM and in 50 U/mL penicillin and […] streptomycin. For transport studies, 200,000 cells/well were seeded on Millicell 24-well cell culture plates. After 24 hours of incubation at 37 °C and 5% CO2, the medium was changed with Enterocyte Differentiation Medium (Becton Dickinson), which allows Caco-2 cells to establish within three days a differentiated enterocyte monolayer. The permeability of the compounds across the cells’ monolayer was determined by measuring their transport in both directions: apical to basolateral (A → B) and basolateral to apical (B → A). For A → B directional transport, the donor working solution with test article 10 m M) was added to the apical (A) compartment and HBSS (pH 7.4) was added to the basolateral (B). For B → A directional transport, the donor working solution (with test article 10 m M) was added to the basolateral (B) compartment and HBSS (pH 7.4) was added to the apical (A). Samples were collected at T0 and after 2h incubation (5% CO2, 95% relative humidity, 37 °C) for LC-MS/MS analyses. The Papp expressed as nm/sec was calculated as follows: Papp (nm/sec) = (Vr/C0) x (1/A) x (Cr(t)/T) x 1000 000. Where
Vr is the volume of the solution in the receiving compartment (mL); C0 is initial test compound concentration in the donor compartment (expressed as area ratio); A is the membrane surface area (cm2); Cr (t) = measured concentration of the receiver well at time T120 (expressed as area ratio) and T is time of incubation (sec). Efflux ratio was also measured to understand if the compounds undergo active efflux: Efflux ratio = Papp [B > A] / Papp [A > B]. The rank order of apparent permeability of the test compound was compared with that of known reference compounds tested in the same experiment, including Sulpiride and Metoprolol (as marker for low and high permeability, respectively and Talinolol (as known P-gp substrate). […]

[2] = Microsomes stability (clearance in human microsomes); format: in vitro ADME; details: pH 7.4, 0.8 mg protein/mL, 1 mM NADPH, 37 °C, read-out: CLint h mic (clearance in human microsomes)
Description: values in Caco-2 assay were: <10 nm/s = low level; 10-50 nm/s = medium level; >50 nm/s = high […]
Test compounds were incubated, in duplicate, at the concentration of 1 μM with liver microsomes (0.8 mg protein/mL) in Dulbecco’s buffer (pH 7.4) at 37 °C in the presence of 1 mM NADPH. At different time points (0, 5, 10, 20, 30, and 60 min), 50 μL aliquots of the incubates were taken, added with 80 μL of ice-cold acetonitrile, and 20 μL of 1 μM warfarin in acetonitrile (injection check) to stop the reaction, and samples were centrifuged. The supernatants were analyzed by LC−MS/MS for unchanged compounds. Test compounds were incubated with liver microsomes in Dulbecco’s buffer in the absence of NADPH for 0 and 60 min, as control. Midazolam at the concentration of 1 μM, was incubated with microsomes as positive control for phase I activity of microsomes. Control samples were processed as test compound samples.

[3] = ChromLogD chromatographic lipophilicity; format: physicochemical; details: C18 column, pH 7.4
Description: The chromatographic method was based on the differential retention times of test compounds on a C18 column (Luna C18(2), 30 x 2mm, […], 100 Å) under controlled liquid chromatography conditions, comparing retention times with those of standards (Benzyl Alcohol, p-Nitrophenol, Bromobenzene, Anthracene) with known log D values. Stock solutions (10 mM in DMSO) of test compounds were diluted to a final concentration of 1 mM. The mobile phases consisted of A (20mM Ammonium Acetate buffered to pH 7.4 with ammonia hydroxide) and B (ACN). The LC gradient profile was the following: a linear increase to 90% B during 0.0 to 1.3 min, hold at 90 % B during 1.3 to 1.53 min then back to 0.0% B from 1.53 to 1.60 min, hold at 0% B until the end of the run (2.00 min). 1 μL of the sample volume was injected, using a flow rate of 0.5 mL/min and a column temperature of 40°C. All compounds were detected by UPLC/MS analysis using a a Waters ACQUITY UPLC equipped with a Photo Diode Array (PDA) detector coupled with a Waters ACQUITY QDa single quadrupole mass spectrometer with an Electrospray ionization (ESI) source.
The retention times were obtained by processing data in Waters Openlynx. The standards are then plotted in excel and the best fit line was used as the basis for calculating the unknown LogD values from the retention times of the peaks obtained.

[4] = log k'80 PLRP-S chromatographic descriptor; format: physicochemical; details: surrogate of log Dtol
Description: Lipophilicity has been obtained in four different systems. BRlogD and ChromlogD are chromatographic surrogates of log Doct and, despite showing different values, are linearly correlated (Figure S4). Log k′ 80 PLRP-S is a surrogate of log Dtol. Log kw ^IAM mimics the interaction between the compounds and the phospholipids of membranes. The combination of the experimental lipophilicity descriptors is essential to evaluate lipophilicity in different regions of the membrane bilayer. This complete lipophilicity profile may give an idea of the permeability potential of poorly soluble compounds for which standard permeability measurements are unreliable. […] This is supported by its low IC50 value in the cell-based assay.

[5] = Caco-2, pH 7.4, Caco-2 Papp AB with Pgp inhibitor
[6] = Caco-2, pH 7.4, Caco-2 Papp AB without Pgp inhibitor
[7] = Caco-2, pH 7.4, Caco-2 Papp BA with Pgp inhibitor
[8] = Caco-2, pH 7.4, Caco-2 Papp BA without Pgp inhibitor
[9] = Caco-2, pH 7.4, A to B, without Pgp inhibitor, pH 7.4, 2 h, read-out: Caco-2 Papp AB without Pgp inhibitor
[10] = Caco-2, pH 7.4, B to A, without Pgp inhibitor, pH 7.4, 2 h, read-out: Caco-2 Papp BA without Pgp inhibitor (converted)
[11] = Caco-2, pH 7.4, with Pgp inhibitor (name and concentration not stated), A to B, with Pgp inhibitor, pH 7.4, 2 h, read-out: Caco-2 Papp AB with Pgp inhibitor
[12] = Caco-2, pH 7.4, with Pgp inhibitor (name and concentration not stated), B to A, with Pgp inhibitor, pH 7.4, 2 h, read-out: Caco-2 Papp BA with Pgp inhibitor (converted)

Compound	kinetic solubility (in words) (Kinetic solubility)	solubility kinetic at 2 h (Kinetic solubility) [µM]	Papp A→B at 2 h, 10 µM [1, 5] [×10⁻⁶ cm/s]	Papp A→B at 2 h, 10 µM [1, 6] [×10⁻⁶ cm/s]	Papp B→A at 2 h, 10 µM [1, 7] [×10⁻⁶ cm/s]	Papp B→A at 2 h, 10 µM [1, 8] [×10⁻⁶ cm/s]	microsomal CLint at 1 h, 1 µM ([2]; microsomes) [µL/min/mg]	chromatographic logD [3]	logk'80 PLRP-S [4]	Papp A→B at 2 h, 10 µM [1, 9] [×10⁻⁶ cm/s]	Papp B→A at 2 h, 10 µM [1, 10] [×10⁻⁶ cm/s]	Papp A→B at 2 h, 10 µM [1, 11] [×10⁻⁶ cm/s]	Papp B→A at 2 h, 10 µM [1, 12] [×10⁻⁶ cm/s]	microsomal CLint at 1 h, 1 µM ([2]; liver microsomes) [µL/min/mg]
c1cc2nc(n1)Nc1cnn(c1)CCCNCCOc1ccc(cc1)N2 [Compound 6a]	highly soluble	188 ± 18 (≈ 66.1 µg/mL)	8.7 ± 1.9	1.9 ± 0.5	7	22	22.1 ± 1.4	1.15	-0.93	–	–	–	–	–
Cn1cc2c3nc(ncc31)Nc1cnn(c1)CCCNC(=O)COc1ccc-2cc1 [Compound 5b]	less soluble	16 ± 1 (≈ 6.46 µg/mL)	–	–	–	–	–	1.52	-0.68	3 ± 0.6	21.5	22.8 ± 2.8	15.9	88.5 ± 9.6
O=C1COc2ccc(cc2)Nc2ccnc(n2)Nc2cnn(c2)CCCN1 [Compound 6b]	highly soluble	198 ± 3 (≈ 72.3 µg/mL)	–	–	–	–	–	1.17	-0.85	0.6 ± 0.1	22.3	5.5 ± 0.2	20.3	12.1 ± 0.1
Cn1cc2c3nc(ncc31)Nc1cnn(c1)CCCNCCOc1ccc-2cc1 [Compound 5a]	less soluble	20 ± 3 (≈ 7.79 µg/mL)	19.9 ± 2.7	10.2 ± 1.5	13.5	24.2	80.5 ± 2.7	1.75	-0.65	–	–	–	–	–
